Assay [1] concerns THP1-Blue™ ISG cells. The experiment in a line: Type I interferon induction in THP1-Blue ISG reporter cells (QUANTI-Blue, A655). The class given is cell-based, human. The settings on record: for IFN-β levels: 50 μM for 30 minutes, supernatants after overnight incubation, FIG. 10. The procedure: To determine the relative level of type I interferon induced in human cells by each of the native and derivative molecules as a signature of adjuvant potency, 4×10^5 THP1-Blue™ ISG cells (a human monocyte cell line transfected with an IRF-inducible secreted embryonic alkaline phosphatase reporter gene (Invivogen) which express alkaline phosphatase under the control of a promoter comprised of five IFN-stimulated response elements) were incubated with 100 μM of cyclic [G(3′,5′)pG(3′,5′)p] (CDG), cyclic [G(2′,5′)pG(3′,5′)p] (mixed linkage, or ML-CDG), or HBSS for 30 minutes at 37° C. with 5% CO2. After 30 minutes, cells were washed and plated in 96-well dish in RPMI media containing 10% FBS, and incubated at 37° C. with 5% CO2. Cell culture supernatants from each sample were collected after overnight incubation, and 20 μL of the cell culture supernatants was added to 180 μL QUANTI-Blue reagent (Invivogen) and incubated for 45 minutes to evaluate type I interferon protein levels. Readings at Absorbance 655 nm were taken every 3 minutes using a Versa Max kinetic spectrophotometer (Molecular Diagnostics).
[…]. After 30 minutes, cells were washed and plated in 96-well dish in RPMI media containing 10% FBS, and incubated at 37° C. with 5% CO2. Cell culture supernatants from each sample were collected after overnight incubation, and 20 μL of the cell culture supernatants was added to 180 μL QUANTI-Blue reagent (Invivogen) and incubated for 45 minutes. Readings at Absorbance 655 nm were taken at 15 minutes using a SpectraMax spectrophotometer (Molecular Diagnostics).
The induction of type I interferon in human cells was measured to evaluate the potency of untreated and phosphodiesterase-treated oxo, Rp monothio and Rp, Rp dithio derivatives. […]. After 30 minutes, cells were washed and plated in a 96-well dish in RPMI media containing 10% FBS, and incubated at 37° C. with 5% CO2. Cell culture supernatants from each sample were collected after 16 hr incubation, and 20 μL of the cell culture supernatants was added to 180 μL QUANTI-Blue reagent (Invivogen) and incubated for 25 minutes to evaluate type I interferon protein levels. Readings at Absorbance 655 nm were measured with a Versa Max spectrophotometer (Molecular Diagnostics).

In assay [2] the test system is AH1 peptide. In words: AH1-specific IFN-γ ELISpot of PBMCs from treated CT26-bearing mice. The assay is classed as in vivo, BALB/c mice. Particulars: day 18 post tumor implantation, 1 μM AH1 peptide, P=0.003, FIG. 21B. The procedure: (§1) To determine whether the synthetic derivative CDN molecules elicit durable and effective anti-tumor T-cell immunity, 6-8 week old female BALB/c mice (8 mice per group) were implanted with CT26 colon carcinoma cells (1×10^5 cells in 100 μL PBS). Mice were treated with Rp, Rp dithio cyclic [A(2′,5′)pA(3′,5′)p] (ML RR-CDA) compound ([…] in a total volume of 40 μL HBSS) or HBSS vehicle control, and tumor growth was monitored as per previous example. Mice were bled on day 18 post tumor implantation and PBMCs were isolated by Ficoll gradient (Miltenyi Biotech). 5×10^4 PBMCs were stimulated overnight in an IFNγ ELISpot assay with media alone (unstimulated), or with 1 μM of the endogenous H-2 L^d-restricted tumor rejection antigen AH1 peptide in the presence of 1×10^5 naïve splenocytes as feeder cells. IFN-γ ELISpot plates were developed and quantified using a CTL plate reader and ImmunoSpot software. On day 55 post tumor implantation, surviving mice and age-matched naïve control mice were implanted on the contralateral flank with either CT26 or 4T1 (both 1×10^5 cells in 100 μL PBS) tumor cells (4 mice per group), and monitored for tumor growth.

Assay [3] deals with CT26. In words: Re-challenge of surviving mice with CT26 tumor cells on the contralateral flank. The class given is in vivo, BALB/c mice. As for the experimental part: as §1, with “growth. […]” for “growth.”
The test system of assay [4] is CT26 colon carcinoma cells. In words: Abscopal model, CT26 tumors on contralateral flanks, primary tumor injected. The assay is classed as in vivo, BALB/c mice. The settings on record: 50 μg into the primary tumor only, three injections. The text has this: (§2) The STING-dependent induction of tumor-specific T cell immunity protects animals against subsequent challenge with the autologous tumor. It will be apparent to those skilled in the art that advanced cancer is metastatic, and that to be effective, therapies must inhibit outgrowth of distal masses. Treatment of one or selected lesions that inhibits tumor outgrowth of distal untreated tumor masses is known as an abscopal effect. To test whether IT injection of a selected tumor with synthetic CDN derivative molecules inhibited the tumor outgrowth of a distal untreated tumor, (A) CT26 colon carcinoma cells (1×10^5 cells in 100 μL PBS) and (B) 4T1 mammary carcinoma cells (1×10^5 cells in 100 μL PBS) were implanted subcutaneously on the contralateral flanks of 6-8 week old female BALB/c mice (8 mice per group). Treatments began when tumors reached a volume of approximately 75 mm^3, on day 13 post tumor implantation. The Rp, Rp dithio cyclic [A(2′,5′)pA(3′,5′)p] (ML RR-CDA) compound (50 μg in a total volume of 40 μL HBSS), or HBSS vehicle control, was administered by subcutaneous injection into the center of the primary (right side) tumor only using a 27 gauge needle. Injections were repeated every three days, for a total of three intratumoral injections.

In assay [5] the test system is 4T1 mammary carcinoma cells. In words: Abscopal model, 4T1 tumors on contralateral flanks, primary tumor injected. The assay is classed as in vivo, BALB/c mice. Particulars: 50 μg into the primary tumor only, three injections.
From the text: as §2

Molecules are shown by their SMILES.

For `Nc1nc2c(ncn2[C@@H]2O[C@@H]3CO[P@@](O)(=S)O[C@@H]4[C@H](O)[C@@H](CO[P@@](O)(=S)O[C@H]3[C@H]2O)O[C@H]4n2cnc3c(=O)[nH]c(N)nc32)c(=O)[nH]1` [ML RR-CDG, dithio-[RP,RP]-cyclic-[G(2′,5′)pG(3′,5′)p]], the IFN-β levels result in assay [1] is “significantly higher levels of IFN-β than the unmodified cyclic c-di-GMP (CDG) or modified CDG molecules”.
For the compound `Nc1ncnc2c1ncn2[C@@H]1O[C@@H]2COP(O)(=S)O[C@@H]3C(O)[C@@H](COP(O)(=S)O[C@H]2[C@H]1O)O[C@H]3n1cnc2c(N)ncnc21` (stereo partly shown) [ML RR-CDA, dithio-[RP, RP]-cyclic-[A(2′,5′)pA(3′,5′)p]], the IFN-β levels entry in assay [1] was “significantly higher IFN-β levels that either the unmodified CDA or ML CDA molecules”. Also, the “induction of type I interferon, untreated compounds” value in assay [1] (50 μM, mock treated, 16 hr incubation, FIG. 12) is “more potent inducers of type I interferon than the oxo”. Also, in assay [2], the “IFN-γ production of PBMCs in response to AH1 peptide” value is given as “significantly higher IFN-γ in response to AH1 peptide stimulation, as compared to the HBSS-treated control group”. The “protection against CT26 re-challenge, survivors of 4T1 tumors” value in assay [3] (re-challenge on day 35 post tumor implantation, FIG. 22B) is “complete protection”. For the same compound, the “protection against CT26 re-challenge, survivors of CT26 tumors” value in assay [3] (re-challenge on day 55 post tumor implantation, FIG. 21C) is listed as “complete protection against the same CT26 tumor type”. Also, the “inhibition of the treated primary tumor, CT26” value in assay [4] (FIG. 23A) is listed as “complete inhibition of the treated primary tumor”. Also, the “outgrowth of the contralateral (untreated) tumor, CT26” value in assay [4] (P=0.0011, FIG. 23A) is “significantly inhibited”. Further, the “inhibition of the treated primary tumor, 4T1” value in assay [5] (FIG. 23B) is listed as “complete inhibition of the treated primary tumor”. Besides, the “outgrowth of the contralateral (untreated) tumor, 4T1” value in assay [5] (P=0.0019, FIG. 23B) is recorded as “significantly inhibited”.

(Values after patent publication US9724408B2, “Compositions and methods for activating stimulator of interferon gene-dependent signalling” (ADURO BIOTECH, INC., priority 2013, dated 2017).)
